Experimental data published in patent US11382956B2, “Amylin analogues” (Zealand Pharma A/S, priority 2016, dated 2022).
Numbered stars: 1 amine (or outer) side, 2 acyl side, 3 side chain; on linkers, the order of the positions; unused ones are H or OH. Bridge positions count the residues as written; N and C are the ends. Square brackets hold non-standard residues; d marks the D form. Peptide text beside a SMILES is read from it. * marks the point of attachment. C20 diacid = O=C(O)CCCCCCCCCCCCCCCCCCC(=O)*; γGlu = O=C(O)[C@H](CCC(=O)[*:2])N[*:1]; Hyp = O=C(O)[C@@H]1C[C@@H](O)CN1; NMeI = CC[C@H](C)[C@H](NC)C(=O)O; Aad = N[C@@H](CCCC(=O)O)C(=O)O; Orn = NCCC[C@H](N)C(=O)O; Sar = CNCC(=O)O

Assays:
[1] = biological target: T1, recombinant human amylin 3 receptor (hAMYR3) (Homo sapiens, UniProt O60896+P30988); assay: hAMYR3 cAMP assay (AlphaScreen) in 1321N1 cells; format: cell-based; conditions: cAMP formation, 45 min stimulation
T1 construct: host or cells: human astrocytoma cell line 1321N1
T1 sequence (P30988 25-474): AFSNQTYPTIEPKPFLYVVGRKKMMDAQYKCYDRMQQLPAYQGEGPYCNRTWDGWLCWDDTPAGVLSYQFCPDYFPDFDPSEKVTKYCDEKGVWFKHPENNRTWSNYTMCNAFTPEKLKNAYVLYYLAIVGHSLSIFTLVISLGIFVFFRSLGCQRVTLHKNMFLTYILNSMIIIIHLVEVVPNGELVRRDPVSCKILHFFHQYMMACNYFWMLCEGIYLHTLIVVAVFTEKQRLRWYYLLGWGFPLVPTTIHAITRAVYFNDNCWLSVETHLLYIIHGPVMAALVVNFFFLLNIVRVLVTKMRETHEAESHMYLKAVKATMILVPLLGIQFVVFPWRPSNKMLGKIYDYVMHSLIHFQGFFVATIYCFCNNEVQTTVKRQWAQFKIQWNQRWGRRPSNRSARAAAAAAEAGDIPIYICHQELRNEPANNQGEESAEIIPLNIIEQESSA
T1 sequence (O60896 24-148 partner): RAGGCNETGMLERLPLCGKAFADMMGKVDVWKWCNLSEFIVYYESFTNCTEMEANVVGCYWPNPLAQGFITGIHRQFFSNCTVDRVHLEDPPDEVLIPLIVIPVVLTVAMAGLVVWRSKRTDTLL
Method in brief: (§1)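 EC50 values come from curve fits over at least 7 peptide concentrations, with cAMP read by AlphaScreen competition after 1 h in the dark. Cells were 1321N1 lines carrying human calcitonin receptor, with RAMP3 co-expressed for AMY3, treated 45 min at room temperature in the presence of IBMX.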

[2] = biological target: T2, recombinant human calcitonin receptor (hCT-R) (Homo sapiens, UniProt P30988); assay: hCT-R cAMP assay (AlphaScreen) in 1321N1 cells; format: cell-based; conditions: cAMP formation, 45 min stimulation
T2 construct: host or cells: human astrocytoma cell line 1321N1
T2 sequence (P30988 25-474): T1 sequence (P30988 25-474)
Method in brief: as §1

[3] = Assessment of physical stability: fibril formation by Thioflavin T fluorescence; format: physicochemical; parameters: key: FND = fibrillation not detected; FD = fibrillation detected; conditions: 1 mg/mL peptide; for Fibrillation (in buffer) pH4 acetate: 50 mM acetate buffer pH 4.0, 96 hours at 40° C.; for Fibrillation (in buffer) pH7 histidine: 50 mM histidine buffer pH 7.0, 96 hours at 40° C.; for Fibrillation (in buffer) pH7 phosphate: 50 mM phosphate buffer pH 7.0, 96 hours at 40° C.
Method in brief: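 Fibrillation detected (FD) means a significant rise in ThT fluorescence over 96 hours at 40° C, read at 10 min intervals each preceded by 300 s automixing. Samples: 1 mg/mL peptide, 40 μM ThT, in 50 mM phosphate or histidine (pH 7.0) or acetate (pH 4.0), triplicate.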

[4] = Assessment of chemical stability in 40 mM buffers at 40° C. (RP-HPLC); format: physicochemical; conditions: 1 mg/mL; for % degradation after 72 h at 40° C. pH7 phosphate: phosphate buffer pH 7, 72 h; for % degradation after 72 h at 40° C. pH4 acetate: acetate buffer pH 4, 72 h; for % degradation after 72 h at 40° C. pH6 phosphate: phosphate buffer pH 6, 72 h; for % degradation after 14 days at 40° C. pH6 phosphate: phosphate buffer pH 6, 14 days
Method in brief: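 Degradation is the main-peak area-% at each time point minus that at t=0, measured by C8 reversed-phase HPLC (TFA/acetonitrile/water gradient, 220 nm). Incubation at 40° C for 3 or 14 days, 1 mg/mL peptide in 40 mM buffer at pH 4, 6 or 7.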

[5] = Effect on acute food intake and body weight in normal Sprague Dawley rats; format: in vivo, Sprague Dawley (SD) rats; conditions: Dose: 30 nmol/kg sc, vehicle-corrected
Source text: Sprague Dawley (SD) rats were obtained from Janvier Labs, France. The animals arrived at least 14 days before the study start to allow acclimatization to experimental conditions. From arrival and throughout the study, the rats were housed in groups of 2 to 4 (n=2-4) in a light-, temperature- and humidity-controlled room. Animals had access ad libitum to food (KLIBA 3430, Provimi Kliba AG, Switzerland) and water (domestic quality tap water) during the entire study. Per group 6-8 rats were included. A vehicle group and positive control group were included in each set of tests. […] Dosing volume was 2 ml/kg. Food intake was recorded online using an automated food intake system (HM02, MBRose, Denmark) for 4 days or manually at 0 h for a predose and then 24, 48, 72 and 96 h post dosing. Body weight was measured daily.
Statistical analyses were performed using GraphPad™ Prism version 7. The measured parameters were compared using two-way ANOVA followed by Dunnett's multiple comparison tests. Differences were considered statistically significant at p<0.05.

| EC50 [1] [nM] | EC50 [2] [nM] | Fibrillation (in buffer) pH4 acetate [3] | Fibrillation (in buffer) pH7 histidine [3] | Fibrillation (in buffer) pH7 phosphate [3] | % degradation after 72 h at 40° C. pH7 phosphate [4] [%] | % degradation after 72 h at 40° C. pH4 acetate [4] [%] | % degradation after 14 days at 40° C. pH4 acetate ([4]; acetate buffer pH 4, 14 days) [%] | % degradation after 72 h at 40° C. pH6 phosphate [4] [%] | % degradation after 14 days at 40° C. pH6 phosphate [4] [%] | % degradation after 14 days at 40° C. pH7 phosphate ([4]; phosphate buffer pH 7, 14 days) [%] | Structure (SMILES) | Body weight reduction in % at 48 h [5] [%] | Food intake reduction in % at 48 h [5] [%] |
| --- | --- | --- | --- | --- | --- | --- | --- | --- | --- | --- | --- | --- | --- |
| 0.336 | 0.844 | FND | FND | FND | <1 | – | – | – | – | – | CC[C@H](C)[C@@H](C(=O)N[C@@H](CC(C)C)C(=O)N[C@@H](CO)C(=O)N[C@@H](CO)C(=O)N[C@H](C(=O)N[C@@H](CCC(=O)O)C(=O)N[C@H](C(=O)NCC(=O)N[C@@H](CO)C(=O)N[C@@H](CC(N)=O)C(=O)N[C@H](C(=O)N1C[C@H](O)C[C@H]1C(N)=O)[C@@H](C)O)C(C)C)[C@@H](C)O)N(C)C(=O)[C@H](C)NC(=O)CN(C)C(=O)[C@H](Cc1ccccc1)NC(=O)[C@@H](NC(=O)[C@H](C)NC(=O)[C@H](CCCNC(=N)N)NC(=O)[C@H](CCC(N)=O)NC(=O)[C@H](CC(C)C)NC(=O)[C@H](Cc1ccccc1)NC(=O)[C@H](CCCC(=O)O)NC(=O)[C@H](C)NC(=O)[C@H](CC(C)C)NC(=O)[C@H](CCCNC(=N)N)NC(=O)[C@H](CCC(=O)O)NC(=O)[C@@H](NC(=O)[C@H](C)NC(=O)[C@@H]1CCCNC(=O)C[C@H](NC(=O)[C@H](CCCNC(=N)N)NC(=O)CC[C@H](NC(=O)CCCCCCCCCCCCCCCCCCC(=O)O)C(=O)O)C(=O)NCC(=O)N[C@@H]([C@@H](C)O)C(=O)N[C@@H](C)C(=O)N[C@@H]([C@@H](C)O)C(=O)N1)[C@@H](C)O)[C@@H](C)O [Compound 25, [19CD]-isoGlu-RD()GTAT-Orn()-ATERLA-Aad-FLQRATF-Gly(Me)-A-Ile(Me)-LSSTEVGSNT-Hyp-NH2] ({C20 diacid-γGlu}-RDGTAT[Orn]ATERLA[Aad]FLQRATF[Sar]A[NMeI]LSSTEVGSNT[Hyp]-NH2; lactam 2-7) | – | – |
| 0.068 | 0.345 | FD | FND | FND | <1 | <1 | 1.9 | <1 | 1.8 | 9.1 | CC[C@H](C)[C@@H](C(=O)N[C@@H](CC(C)C)C(=O)N[C@@H](CO)C(=O)N[C@@H](CO)C(=O)N[C@H](C(=O)N[C@@H](CCC(=O)O)C(=O)N[C@H](C(=O)NCC(=O)N[C@@H](CO)C(=O)N[C@@H](CC(N)=O)C(=O)N[C@H](C(=O)N1C[C@H](O)C[C@H]1C(N)=O)[C@@H](C)O)C(C)C)[C@@H](C)O)N(C)C(=O)[C@H](C)NC(=O)CN(C)C(=O)[C@H](Cc1ccccc1)NC(=O)[C@H](CO)NC(=O)[C@H](CO)NC(=O)[C@H](CCCNC(=N)N)NC(=O)[C@H](CCC(N)=O)NC(=O)[C@H](CC(C)C)NC(=O)[C@H](Cc1ccccc1)NC(=O)[C@H](CCCNC(=N)N)NC(=O)[C@H](C)NC(=O)[C@H](CC(C)C)NC(=O)[C@H](CCCNC(=N)N)NC(=O)[C@H](CCC(=O)O)NC(=O)[C@@H](NC(=O)[C@H](C)NC(=O)[C@@H]1CCCNC(=O)C[C@H](NC(=O)[C@H](CCCNC(=N)N)NC(=O)CC[C@H](NC(=O)CCCCCCCCCCCCCCCCCCC(=O)O)C(=O)O)C(=O)NCC(=O)N[C@@H]([C@@H](C)O)C(=O)N[C@@H](C)C(=O)N[C@@H]([C@@H](C)O)C(=O)N1)[C@@H](C)O [Compound 10, [19CD]-isoGlu-RD()GTAT-Orn()-ATERLARFLQRSSF-Gly(Me)-A-Ile(Me)-LSSTEVGSNT-Hyp-NH2] ({C20 diacid-γGlu}-RDGTAT[Orn]ATERLARFLQRSSF[Sar]A[NMeI]LSSTEVGSNT[Hyp]-NH2; lactam 2-7) | – | – |
| 0.01 | 0.037 | FND | FND | FND | <1 | <1 | – | <1 | – | – | CC[C@H](C)[C@@H](C(=O)N1CCC[C@H]1C(=O)N[C@@H](CO)C(=O)N[C@@H](CO)C(=O)N[C@H](C(=O)N[C@@H](CCC(=O)O)C(=O)N[C@H](C(=O)NCC(=O)N[C@@H](CO)C(=O)N[C@@H](CC(N)=O)C(=O)N[C@H](C(=O)N1C[C@H](O)C[C@H]1C(N)=O)[C@@H](C)O)C(C)C)[C@@H](C)O)N(C)C(=O)[C@H](C)NC(=O)CN(C)C(=O)[C@H](Cc1ccccc1)NC(=O)[C@H](CO)NC(=O)[C@H](CO)NC(=O)[C@H](CCCNC(=N)N)NC(=O)[C@H](CCC(N)=O)NC(=O)[C@H](CC(C)C)NC(=O)[C@H](Cc1ccccc1)NC(=O)[C@H](CCCC(=O)O)NC(=O)[C@H](C)NC(=O)[C@H](CC(C)C)NC(=O)[C@H](CCCNC(=N)N)NC(=O)[C@H](CCC(=O)O)NC(=O)[C@@H](NC(=O)[C@H](C)NC(=O)[C@@H]1CCCNC(=O)C[C@H](NC(=O)[C@H](CCCNC(=N)N)NC(=O)CC[C@H](NC(=O)CCCCCCCCCCCCCCCCCCC(=O)O)C(=O)O)C(=O)NCC(=O)N[C@@H]([C@@H](C)O)C(=O)N[C@@H](C)C(=O)N[C@@H]([C@@H](C)O)C(=O)N1)[C@@H](C)O [Compound 21, [19CD]-isoGlu-RD()GTAT-Orn()-ATERLA-Aad-FLQRSSF-Gly(Me)-A-Ile(Me)-PSSTEVGSNT-Hyp-NH2] ({C20 diacid-γGlu}-RDGTAT[Orn]ATERLA[Aad]FLQRSSF[Sar]A[NMeI]PSSTEVGSNT[Hyp]-NH2; lactam 2-7) | – | – |
| 0.035 | 0.043 | – | – | – | – | – | – | – | <1 | – | CC[C@H](C)[C@@H](C(=O)N[C@@H](CC(C)C)C(=O)N[C@@H](CO)C(=O)N[C@@H](CO)C(=O)N[C@H](C(=O)N[C@@H](CCC(=O)O)C(=O)N[C@H](C(=O)NCC(=O)N[C@@H](CO)C(=O)N[C@@H](CC(N)=O)C(=O)N[C@H](C(=O)N1C[C@H](O)C[C@H]1C(N)=O)[C@@H](C)O)C(C)C)[C@@H](C)O)N(C)C(=O)[C@H](C)NC(=O)CN(C)C(=O)[C@H](Cc1ccccc1)NC(=O)[C@H](CO)NC(=O)[C@H](CO)NC(=O)[C@H](CCCNC(=N)N)NC(=O)[C@H](CCC(N)=O)NC(=O)[C@H](CC(C)C)NC(=O)[C@H](Cc1ccccc1)NC(=O)[C@H](Cc1c[nH]cn1)NC(=O)[C@H](C)NC(=O)[C@H](CC(C)C)NC(=O)[C@H](CCCNC(=N)N)NC(=O)[C@H](CCC(N)=O)NC(=O)[C@@H](NC(=O)[C@H](C)NC(=O)[C@@H]1CCCCNC(=O)C[C@H](NC(=O)[C@H](CCCNC(=N)N)NC(=O)CC[C@H](NC(=O)CCCCCCCCCCCCCCCCCCC(=O)O)C(=O)O)C(=O)NCC(=O)N[C@@H]([C@@H](C)O)C(=O)N[C@@H](C)C(=O)N[C@@H]([C@@H](C)O)C(=O)N1)[C@@H](C)O [Compound 16, [19CD]-isoGlu-RD()GTATK()ATQRLAHFLQRSSF-Gly(Me)-A-Ile(Me)-LSSTEVGSNT-Hyp-NH2] ({C20 diacid-γGlu}-RDGTATKATQRLAHFLQRSSF[Sar]A[NMeI]LSSTEVGSNT[Hyp]-NH2; lactam 2-7) | 7.4 | 66 |
